Patent publication US11957759B1, “Rapidly accelerated fibrosarcoma (RAF) degrading compounds and associated methods of use” (Arvinas Operations, Inc., priority 2022, dated 2024)

How the values were obtained:
B-RAF V600E = biological target: T1, B-RAF V600E (Homo sapiens, UniProt P15056, V600E); test: Target protein degradation, assay C: T-Rex 293 cells, HA-BRAF_V600E, 384 well format; format: cell-based; conditions: T-Rex 293 HA-BRAF_V600E cells, 24 hours, Examples 83-269; for DC50: Assay C; for Dmax: T-REx-293, Assay C
T1 construct: expressed in transfected cells; host or cells: T-Rex 293 cells (Invitrogen #R71007)
Summary of the method: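 T-Rex 293 cells stably expressing doxycycline-induced (1 ng/mL) HA-BRAF V600E were treated 24 h at 37 °C with compound (300 nM–5 pM, 11 points, 0.5% DMSO). HA immunofluorescence was quantified by high-content imaging to give DC50 and Dmax (% of control); nuclei counts versus DMSO gauged toxicity.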

B-RAF G466V = biological target: T2, B-RAF G466V (Homo sapiens, UniProt P15056, G466V); test: Target protein degradation, assay D: T-Rex 293 cells, HA-BRAF_G466V, 384 well format; format: cell-based; conditions: T-Rex 293 HA-BRAF_G466V cells, 24 hours, Examples 83-269; for DC50: Assay D; for Dmax: T-REx-293, Assay D
T2 construct: expressed in transfected cells; host or cells: T-Rex 293 cells (Invitrogen #R71007)
Summary of the method: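 T-Rex 293 cells stably expressing doxycycline-induced (1 ng/mL) HA-BRAF G466V treated 24 h at 37 °C with PROTACs, 11-point 1:3 dilution, 300 nM to 5 pM final, 0.5% DMSO. Fixed cells immunostained for HA and imaged by high-content microscopy; DC50 and Dmax (% of control) derived, toxicity from nuclei counts versus DMSO.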

T1 sequence (P15056 whole entry V600E): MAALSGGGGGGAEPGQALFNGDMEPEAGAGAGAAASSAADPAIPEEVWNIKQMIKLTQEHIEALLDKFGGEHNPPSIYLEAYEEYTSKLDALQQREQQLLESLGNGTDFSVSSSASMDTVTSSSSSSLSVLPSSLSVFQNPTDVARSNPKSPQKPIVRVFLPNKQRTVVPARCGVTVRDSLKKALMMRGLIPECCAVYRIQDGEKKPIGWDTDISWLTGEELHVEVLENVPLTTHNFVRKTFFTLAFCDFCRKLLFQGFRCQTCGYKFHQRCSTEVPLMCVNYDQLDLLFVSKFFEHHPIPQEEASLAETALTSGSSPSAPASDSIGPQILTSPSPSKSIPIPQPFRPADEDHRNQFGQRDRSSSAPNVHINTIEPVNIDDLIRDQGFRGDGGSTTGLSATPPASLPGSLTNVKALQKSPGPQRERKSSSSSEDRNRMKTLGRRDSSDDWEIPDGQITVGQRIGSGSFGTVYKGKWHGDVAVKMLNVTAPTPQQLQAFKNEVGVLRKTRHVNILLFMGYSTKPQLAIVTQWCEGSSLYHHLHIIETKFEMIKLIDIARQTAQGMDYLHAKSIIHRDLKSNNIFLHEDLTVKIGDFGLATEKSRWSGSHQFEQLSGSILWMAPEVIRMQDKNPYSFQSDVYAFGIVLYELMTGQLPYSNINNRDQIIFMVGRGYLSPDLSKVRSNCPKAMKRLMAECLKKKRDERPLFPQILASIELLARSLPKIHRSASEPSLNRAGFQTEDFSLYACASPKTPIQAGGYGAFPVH
T2 sequence (P15056 whole entry G466V): as the sequence (P15056 whole entry V600E) above, with G466V, E600V counted along it

Structure (SMILES)	DC50 (B-RAF V600E)	DC50 (B-RAF G466V)	Dmax (B-RAF V600E)	Dmax (B-RAF G466V)
N#Cc1c(NS(=O)(=O)N2CC[C@@H](F)C2)ccc(F)c1Oc1ccc2ncn(-c3ccc(N4CCN(CC5CCN(c6ccc7c(c6)CN(C6CCC(=O)NC6=O)C7=O)CC5)CC4)cc3F)c(=O)c2c1 (stereo partly drawn) [Example 87, (3R)-N-{2-cyano-3-[(3-{4-[4-({1-[2-(2,6-dioxopiperidin-3-yl)-1-oxo-2,3-dihydro-1H-isoindol-5-yl]piperidin-4-yl}methyl)piperazin-1-yl]-2-fluorophenyl}-4-oxo-3,4-dihydroquinazolin-6-yl)oxy]-4-fluorophenyl}-3-fluoropyrrolidine-1-sulfonamide]	> 0.5 µM	> 0.03 µM		
C[C@H]1CN(CC2CCN(c3ccc4c(c3F)CN([C@H]3CCC(=O)NC3=O)C4=O)CC2)CCN1c1ccc(-n2cnc3ccc(Oc4c(F)ccc(NS(=O)(=O)N5CC[C@@H](F)C5)c4C#N)cc3c2=O)nc1 [Example 213, (3R)-N-{2-cyano-3-[(3-{5-[(2S)-4-[(1-{2-[(3S)-2,6-dioxopiperidin-3-yl]-4-fluoro-1-oxo-2,3-dihydro-1H-isoindol-5-yl}piperidin-4-yl)methyl]-2-methylpiperazin-1-yl]pyridin-2-yl}-4-oxo-3,4-dihydroquinazolin-6-yl)oxy]-4-fluorophenyl}-3-fluoropyrrolidine-1-sulfonamide]	0.05 to 0.5 µM	0.001 to 0.01 µM	≤ 35%	≤ 35%
N#Cc1c(NS(=O)(=O)N2CC[C@@H](F)C2)ccc(F)c1Oc1ccc2ncn(-c3ccc(N4CC(CN5CCN(C6CCN(c7ccc8c(c7)CN(C7CCC(=O)NC7=O)C8=O)CC6)CC5)C4)cc3)c(=O)c2c1 (single isomer, unassigned) [Example 198, (3R)-N-[2-cyano-3-({3-[4-(3-{[4-(1-{2-[(3R*)-2,6-dioxopiperidin-3-yl]-1-oxo-2,3-dihydro-1H-isoindol-5-yl}piperidin-4-yl)piperazin-1-yl]methyl}azetidin-1-yl)phenyl]-4-oxo-3,4-dihydroquinazolin-6-yl}oxy)-4-fluorophenyl]-3-fluoropyrrolidine-1-sulfonamide]	0.05 to 0.5 µM	0.001 to 0.01 µM		
COc1cc(N2CC(CN3CCN(c4ccc(-n5cnc6ccc(Oc7c(F)ccc(NS(=O)(=O)N8CC[C@@H](F)C8)c7C#N)cc6c5=O)cc4)CC3)C2)cc2c1C(=O)N([C@H]1CCC(=O)NC1=O)C2 [Example 236, (3R)-N-(2-cyano-3-{[3-(4-{4-[(1-{2-[(3S)-2,6-dioxopiperidin-3-yl]-7-methoxy-1-oxo-2,3-dihydro-1H-isoindol-5-yl}azetidin-3-yl)methyl]piperazin-1-yl}phenyl)-4-oxo-3,4-dihydroquinazolin-6-yl]oxy}-4-fluorophenyl)-3-fluoropyrrolidine-1-sulfonamide]	0.05 to 0.5 µM	0.01 to 0.03 µM	35 to 70%	≥ 70%

Next, values leading:

DC50 (B-RAF V600E)	DC50 (B-RAF G466V)	Dmax (B-RAF V600E)	Dmax (B-RAF G466V)	Structure (SMILES)
0.005 to 0.05 µM	0.001 to 0.01 µM	35 to 70%	35 to 70%	N#Cc1c(NS(=O)(=O)N2CC[C@@H](F)C2)ccc(F)c1Oc1ccc2ncn(-c3ccc(N4CCN(CC5CCN(c6ccc7c(c6)CN([C@@H]6CCC(=O)NC6=O)C7=O)CC5)CC4)cc3)c(=O)c2c1 [Example 103, (3R)-N-(2-cyano-3-{[3-(4-{4-[(1-{2-[(3R)-2,6-dioxopiperidin-3-yl]-1-oxo-2,3-dihydro-1H-isoindol-5-yl}piperidin-4-yl)methyl]piperazin-1-yl}phenyl)-4-oxo-3,4-dihydroquinazolin-6-yl]oxy}-4-fluorophenyl)-3-fluoropyrrolidine-1-sulfonamide]
0.005 to 0.05 µM	0.01 to 0.03 µM	≤ 35%	≤ 35%	N#Cc1c(NS(=O)(=O)N2CC[C@@H](F)C2)ccc(F)c1Oc1ccc2ncn(-c3ccc(N4CCC(COCC5CCN(c6ccc7c(c6)C(=O)N(C6CCC(=O)NC6=O)C7=O)CC5)CC4)nc3)c(=O)c2c1 (stereo partly drawn) [Example 144, (3R)-N-(2-cyano-3-{[3-(6-{4-[{{1-[2-(2,6-dioxopiperidin-3-yl)-1,3-dioxo-2,3-dihydro-1H-isoindol-5-yl]piperidin-4-yl}methoxy)methyl]piperidin-1-yl}pyridin-3-yl)-4-oxo-3,4-dihydroquinazolin-6-yl]oxy}-4-fluorophenyl)-3-fluoropyrrolidine-1-sulfonamide]
